From publication PMC6934184, “Selective DNA-PKcs inhibition extends the therapeutic index of localized radiotherapy and chemotherapy” (The Journal of Clinical Investigation, 2019)

Target: T1, MAPK8 (JNK1) (Homo sapiens, UniProt P45983)
T1 construct: purchased Thermo Fisher Scientific (Life Technologies) SelectScreen
Test: SelectScreen Z'LYTE
Assay type: biochemical
Settings: ATP 100 µM
In short: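 Percent values come from Thermo SelectScreen profiling of NU5455, combining activity and binding assays. CSF1R was run in Z'LYTE format at Km app ATP, and CAMK1 in Adapta format with ATP listed at 10.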

T1 sequence (P45983 whole entry): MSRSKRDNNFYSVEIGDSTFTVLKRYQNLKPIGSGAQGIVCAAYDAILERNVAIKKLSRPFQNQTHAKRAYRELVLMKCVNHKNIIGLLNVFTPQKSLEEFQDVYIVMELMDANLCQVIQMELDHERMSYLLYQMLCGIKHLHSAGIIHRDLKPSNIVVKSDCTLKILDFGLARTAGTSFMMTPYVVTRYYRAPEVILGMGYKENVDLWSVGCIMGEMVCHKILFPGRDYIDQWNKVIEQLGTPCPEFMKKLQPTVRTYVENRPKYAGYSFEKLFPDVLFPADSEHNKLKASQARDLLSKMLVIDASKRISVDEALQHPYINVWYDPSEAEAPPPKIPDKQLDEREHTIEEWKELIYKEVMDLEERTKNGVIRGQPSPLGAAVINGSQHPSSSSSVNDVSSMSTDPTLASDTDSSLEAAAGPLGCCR

With `CN(C(=O)CN1CCOCC1)c1ccc2sc3c(-c4cccc5c(=O)cc(N6CC7CCC(C6)O7)oc45)cccc3c2c1` [NU5455] the inhibition at 1 µM was 12%.
